Measurements as given in patent US20200270225A1, “Chiral Diacylhydrazine Ligands for Modulating the Expression of Exogenous Genes via an Ecdysone Receptor Complex” (Intrexon Corporation, priority 2007, published 2020).
pEC50: −log10 of the molar value. Read-outs that look alike come from different tables or passages of the source.

What was measured:
[1] = Solubility and appearance of 20 mg/mL preparations in Labrasol; assay type: physicochemical; settings: sonicated at 25-28° C.
Method: These Labrasol dosing preparations utilized micronized R enantiomer, but non-micronized racemate. To address the possibility that the non-micronized racemate specimen might bias its dissolution rate in Labrasol, an independent experiment was performed. In this experiment, the solubility and appearance of 20 mg/mL preparations of micronized and non-micronized racemate were examined. Micronized racemate (lot REH-28-9-1/PYAP-2-8-2-2M), non-micronized racemate (lot # PYAP-2-8-2-2), and micronized R enantiomer (lot # REH-28-4-2) were each suspended in Labrasol, swirled by hand, and then sonicated in a Branson 2100 table top sonicator at 25-28° C. for 3×5 min intervals and a 1×10 min interval, interspersed with swirling by hand. […] By visual inspection, the quantity of undissolved material in micronized and non-micronized racemate samples was substantially the same. […] Some larger crystal fragments remained in the non-micronized sample. Since both micronized and non-micronized samples of racemate result in similar amounts of undissovled material, it appears that the major difference between R enantiomer and racemate Labrasol preparations is the intrinsic solubility rather than the starting particle size of the solute.

[2] = Solubility in pharmaceutical excipients, Assay 2 (heating, cooling, seeding); assay type: physicochemical; settings: supersaturated solutions seeded with crystalline substance, room temperature
Method: For each excipient, the lowest concentration at which R enantiomer or racemate of 2-Ethyl-3-methoxy-benzoic acid N′-(1-tert-butyl-butyl)-N′-(3,5-dimethyl-benzoyl)-hydrazide is insoluble in the FIG. 9 assay was identified. Suspensions of both materials at this same concentration were prepared in vials. Each sample was stirred at room temperature for ≤2.5 hr (treatment 1). As a separate experiment, test article/excipient combinations were heated in an aluminum block at 90° C. for 5 minutes, or longer as needed; indicated in FIG. 10, and allow to cool to room temperature, and seeded with a tiny amount of the same micronized substance. (treatment 2). The physical appearance was recorded at 72 hr or the indicated time (FIG. 10). In all cases, no change in color was observed. This solubility assay operates from a fully dissolved condition in which initial particle size and morphic form are irrelevant. […] Photos were taken of preparations in clear glass vials (R enantiomer under the conditions of assay 1 without heating to 90° C., and racemate after 90° C. treatment, cooling and seeding, not shown).

[3] = molecular target: T1, [V390I/Y410E/E274V]-CfEcR (Choristoneura fumiferana, UniProt O77240); assay type: cell-based; settings: 3T3 Cells; for RMFI (relative maximum fold induction): relative to GS-E ligand
T1 construct: assay construct b835
Outline: (§1)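 NIH3T3 cells were transiently co-transfected with GAL4-DBD fused to CfEcR DEF domains (wild-type or V390I/Y410E/E274V), VP16-AD fused to chimeric human/Locusta RXR, and a GAL4-response luciferase reporter. Ligand was given at 8 doses, 0.01–33 µM, 0.33% DMSO, luciferase read at 48 h. EC50 came from fold induction over DMSO via three-parameter logistic fit; Relative Max FI was taken versus GS™-E ligand.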

[4] = molecular target: wild-type Choristoneura fumiferana EcR (D, E and F domains) (Choristoneura fumiferana, UniProt O77240); assay type: cell-based; settings: WT-CtEcR, 3T3 Cells; for RMFI (relative maximum fold induction): relative to GS-E ligand
Outline: as §1

[5] = Dynamic vapor sorption analysis; assay type: physicochemical; settings: for weight loss under desiccant condition: 20% RH; for weight gain: 70% RH, after dehydration
Excerpt: At 70% RH, the weight gain is 6.3% for the R enantiomer and 6.2% for the racemate (data not shown), indicating moderate hygroscopicity for both materials.

[6] = Intrinsic dissolution of compressed pellets in 1% Polysorbate 80; assay type: physicochemical; settings: 1% Polysorbate 80 in di-water, 37° C., up to 120 minutes
Method: Next, the intrinsic dissolution profiles of R enantiomer and racemate of 2-ethyl-3-methoxy-benzoic acid N′-(1-tert-butyl-butyl)-N′-(3,5-dimethyl-benzoyl)-hydrazide were determined using compressed pellets (7 mm diameter, 100 mg) in 1% Polysorbate 80 in Di-water at 37° C., according to the following test conditions:
Medium: 1% Polysorbate 80 in di-water (vacuum filtered thru a 0.8 μM filter)
Sampling volume: 1 mL (filtered thru 30 micron)
Analysis: HPLC (prepare standard solutions from each lot)
Sample size: n=2 pellets/test substance
After 120 minutes, it was observed that the pellets for both substances remained intact in the medium.

Row | SMILES | solubility and appearance in Labrasol [1] | physical appearance of excipient solutions after seeding [2] | pEC50 ([3]; rac) | RMFI (relative maximum fold induction) ([3]; rac) | pEC50 ([4]; rac) | RMFI (relative maximum fold induction) ([4]; rac) | weight loss under desiccant condition [5] | weight gain [5] [%] | release from compressed pellets (intrinsic dissolution) [6] | pEC50 ([3]; R) | RMFI (relative maximum fold induction) ([3]; R) | pEC50 ([4]; R) | RMFI (relative maximum fold induction) ([4]; R)
1 | CCCC(N(NC(=O)c1cccc(OC)c1CC)C(=O)c1cc(C)cc(C)c1)C(C)(C)C (racemic) [rac-1, rac-2-ethyl-3-methoxy-benzoic acid N′-(1-tert-butyl-butyl)-N′-(3,5-dimethyl-benzoyl)-hydrazide] | remained cloudy with suspended fine particles | precipitation/crystallization upon seeding | 9.85 | 1.05 | 8.79 | 1.05 | did not show any significant weight loss | 6.2 | under the detection limit | – | – | – | –
2 | CCC[C@@H](N(NC(=O)c1cccc(OC)c1CC)C(=O)c1cc(C)cc(C)c1)C(C)(C)C [Example 1, (R)-3,5-Dimethyl-benzoic Acid N-(1-tert-butyl-butyl)-N′-(2-ethyl-3-methoxy-benzoyl)-hydrazide] | readily dissolved | remains fully dissolved | – | – | – | – | 0.9 % of total weight | 6.3 | under the detection limit | 9.89 | 0.82 | 8.65 | 0.97
